Assay [1] has as its target T1, Ets-1-DNA interaction (Homo sapiens, UniProt P14921).
T1 construct: host or cells: cell-free in vitro translation, rabbit reticulocyte lysate
T1 sequence (P14921 1-441): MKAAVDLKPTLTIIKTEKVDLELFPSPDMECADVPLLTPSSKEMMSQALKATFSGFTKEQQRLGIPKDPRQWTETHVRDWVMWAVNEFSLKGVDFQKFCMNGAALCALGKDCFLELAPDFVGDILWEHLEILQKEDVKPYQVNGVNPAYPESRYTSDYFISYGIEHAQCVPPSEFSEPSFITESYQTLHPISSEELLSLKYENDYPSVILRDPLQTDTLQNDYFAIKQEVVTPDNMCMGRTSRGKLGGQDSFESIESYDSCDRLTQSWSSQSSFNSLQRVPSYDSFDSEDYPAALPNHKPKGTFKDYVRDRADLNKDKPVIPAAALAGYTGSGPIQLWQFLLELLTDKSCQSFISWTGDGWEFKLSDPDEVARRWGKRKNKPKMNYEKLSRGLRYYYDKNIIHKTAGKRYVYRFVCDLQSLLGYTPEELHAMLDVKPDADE
Nature of the assay: Electrophoretic mobility shift assay (EMSA) of Ets-1 DNA binding. Here is the method: Initially it is determined whether the identified small molecule “hits” interfere with Ets-1-DNA binding using electrophoretic mobility shift assays (EMSAs). These are performed as described previously (142). In brief, in vitro translated Ets-1 protein is generated using a rabbit reticulolysate system (Promega) and a mammalian expression plasmid encoding the Ets-1 protein. 1 μl of the in vitro translation reaction and 0.1-0.2
ng [32P]dATP-labeled double-stranded oligonucleotide probe (5,000-10,000 cpm) will be run on 4% polyacrylamide gels containing 0.5×TBE buffer. […] The small molecules identified are initially evaluated at a concentration of 1 mM, which is the concentration used in high throughput fraganomic approaches for evaluating the interaction of weak-binding small molecules (143, 144). Those small molecules that inhibit the Ets-1-DNA interaction will be re-evaluated over a concentration range of 10 μM-1 mM. Solutions containing DMSO alone will be used as a vehicle control. To ensure the small molecule is specifically targeting the Ets-1-DNA interface and not interacting non-specifically with the DNA, a non-specific promoter is included as well as a control small molecule that is not selected as a “hit” by our HTD screen. To further confirm the molecular specificity of these small molecules for targeting Ets-1, EMSAs will be performed with other members of the ETS family. Ethidium bromide displacement assays could also be used to confirm that the small molecules are not nonspecifically targeting the DNA sequence (145).
A general note: A gel shift assay detects complexes by their altered migration in electrophoresis.

For assay [2], the system named is Ets-1 transactivation. Nature of the assay: Reporter gene transactivation assays (transient transfection). The format is cell-based, Human. Here is the method:
Several downstream targets of Ets-1 including the MCP-1 gene, PAI1, and Flt-1 (49, 142) have been identified. To further define the specificity of small molecules that inhibit DNA binding of Ets-1 in EMSAs, their ability is evaluated with regard to inhibiting transactivation of the MCP-1, PAI-1, and Flt-1 promoters by Ets-1, without affecting the basal activity of the promoter. As controls, the endothelial-specific promoters Tie1 and Tie2 are used, that have been previously shown as targets of the Ets factors NERF2 and Elf-1, but not Ets-1 or Ets-2 (142, 146). The promoters of these genes have previously been subcloned into the PGL2 luciferase reporter (Promega). Similarly, we have previously subcloned the
cDNAs encoding the ETS factors Ets-1, Ets-2, NERF2, and Elf-1 into the PCI mammalian expression plasmid.
Human embryonic kidney cells (HEK 293) are cultured as previously described (147). HEK 293 cells are kidney epithelial cells that express low basal levels of Ets-1, and are easily transfected. Cotransfections of 2×10^5 HEK 293 cells are carried out with 0.3 μg of the reporter gene construct DNA and 0.15 μg of the mammalian expression vector encoding the selected Ets factors using 4 μl LipofectAMINE (Invitrogen, San Diego, Calif.) as described (148). […]
(In a reporter assay the amount or activity of a reporter protein is the signal.)

In assay [3] the test system is Ets-1 mediated gene expression. Kind of assay: Ets-1 mediated gene expression in HEK293 cells. The format is cell-based, Human.
In assay [4] the test system is Ets-1 expression. Nature of the assay: Real time PCR of IL-1 induced Ets-1 expression in HUVECs. To be noted: 10 μM, preincubated 1 h, IL-1 10 ng/ml, 2 hr. Type of assay: cell-based, Human. Here is the method:
(§1) SYBR Green I-based real-time PCR is carried out on an Opticon Monitor (MJ Research, Inc, Waltham, Mass.). All PCR mixtures contain PCR buffer [final concentration: 10 mM Tris-HCl (pH9.0), 50 mM KCl, 2 mM MgCl2 and 0.1% TritonX-100], 250 μM deoxy-NTP (Roche), 0.5 μM of each PCR primer, 0.5×SYBR Green I,
(§2) 5% DMSO, and 1U Taq DNA polymerase (Promega, Madison, Wis.) with 2 μl cDNA in a 25 μl final volume of reaction mix. Then, the fluorescence signal is measured immediately following incubation at 78° C. for 5 s that follows each extension step, which eliminates possible primer dimer detection. At the end of PCR cycles, a melting curve will be generated to identify specificity of the PCR product. For each run, serial dilutions of human GAPDH plasmids are used as standards for quantitative measurement of the amount of amplified cDNA. For normalization of each sample, GAPDH primers are used to measure the GAPDH cDNA levels. Cytotoxicity Evaluation of “hit” Compounds Using MTS Assay
(§3) Total RNA was isolated for real time PCR to measure Ets-1 expression levels as well as the IL-1 inducible, Ets-1
(§4) dependent MCP-1 expression levels, following stimulation for 1, 2, 4, 6 and 12 hours. IL-1 induced Ets-1 expression ˜4 fold at 2 hr, however compound #28 reduced Ets-1 induction by greater than 50% during this time frame. […]
(In qPCR the cycle at which signal appears reflects the starting amount.)

For assay [5], the system named is MCP-1 expression. Nature of the assay: Real time PCR of IL-1 inducible, Ets-1 dependent MCP-1 expression in HUVECs. Type of assay: cell-based, Human. Conditions: 10 μM, preincubated 1 h, IL-1 10 ng/ml. As for the experimental part: as §1, §2, §3, §4

Read-outs that look alike come from different tables or passages of the source.

As to `Nc1ccccc1SC(C[N+](=O)[O-])c1ccc2c(c1)OCO2` (stereo not shown) [Compound 28, 2-{[1-(1,3-benzodioxol-5-yl)-2-nitroethyl]thio}aniline], in assay [1], the “inhibition of Ets-1 DNA binding” value is “inhibits Ets-1 DNA binding” and the “inhibits the Ets-1-DNA interaction, concentration range as estimated using EMSAs” value is given as “low uM range”. In addition, the “inhibition of Ets-1 DNA binding” value in assay [1] (FIG. 8 legend: HUVECs preincubated with 10 μM) is given as “inhibits Ets-1 DNA binding”. The “inhibition of transactivation assays” value in assay [2] was determined as 8 fold. Moreover, the “decrease of Ets-1 mediated gene expression” value in assay [3] was 50-60%. In assay [4], the “reduction of IL-1 induced Ets-1 induction” value is recorded as “greater than 50%”. In assay [5], the “reduction of IL-1 induced MCP-1 expression” value was “greater than 40%”.

These data come from patent US20110071142A1, “IDENTIFICATION AND USE OF SMALL MOLECULES TO MODULATE TRANSCRIPTION FACTOR FUNCTION AND TO TREAT TRANSCRIPTION FACTOR ASSOCIATED DISEASES” (BETH ISRAEL DEACONESS MEDICAL CENTER, priority 2007, published 2011).
